Reference: article PMC4671089, “Enhanced Detection of Antigen-Specific CD4^+ T Cells Using Altered Peptide Flanking Residue Peptide–MHC Class II Multimers” (The Journal of Immunology Author Choice, 2015)
Read-outs that look alike come from different tables or passages of the source.

Tests used:
[1] = tested on: HA1.7, F11, and C6 TCRs; settings: three TCRs HA1.7, F11, C6; presented by DR1; vs Flu1; cited from earlier work
[2] = tested on: T cells of three DR1+ donors; test: IFN-γ ELISPOT; assay type: cell-based, human; settings: all three donors; data not shown
[3] = tested on: CD4+ T cells in DR1+ PBMCs ex vivo; assay type: cell-based, human
[4] = tested on: CD4+ T cell clone 2C5 spiked at 1% into DR1+ PBMCs; test: Multimer dilution assay; assay type: cell-based, human
Protocol: Each multimer was serially diluted six times (1, 0.5, 0.25, 0.125, 0.0625, 0.0312, or 0.0156 μg with respect to the pMHC-II component) and used in a final volume of 20 μl to stain 1 × 10^6 DR1^+ PBMCs spiked at 1% with the CD4^+ T cell clone 2C5. After incubation for 20 min at 4°C, cells were washed twice in PBS, stained with Live/Dead fixable aqua (Invitrogen) for 10 min at room temperature and labeled with mouse anti-human CD3-FITC (Serotec), mouse anti-human CD4-allophycocyanin (BD Biosciences), mouse anti-human CD14–Pacific Blue (Invitrogen), and mouse anti-human CD19–Pacific Blue (Invitrogen) for 20 min at 4°C. After two further washes in PBS, samples were acquired directly on a FACSCanto II flow cytometer (BD Biosciences). Data were analyzed using FlowJo software version 10 (Tree Star).

[5] = tested on: CD4+ T cell clone DC-C10; test: Multimer staining of CD4+ T cell clone DC-C10; assay type: cell-based, human; settings: histograms, Fig. 6B
Protocol: (§1) Clonal CD4^+ T cells (1 × 10^5) specific for HA306–318 were resuspended with 1 μg DR1-Flu1 or DR1-Flu3 multimer and incubated for 20 min at 4°C ([45]). Cells were then washed twice with PBS, stained with Live/Dead fixable violet (ViViD; Invitrogen) for 10 min at room temperature and labeled with mouse anti-human CD4-allophycocyanin (BD Biosciences) for 20 min at 4°C. After two further washes in PBS, samples were acquired directly on a FACSCanto II flow cytometer (BD Biosciences). Data were analyzed using FlowJo software version 10 (Tree Star). All incubations with fluorochrome-conjugated pMHC-II multimers were performed in the dark.

[6] = tested on: Flu1 peptide-stimulated DR1+ PBMCs (CD4+ T cells); test: Multimer staining following PBMC culture; assay type: cell-based, human; settings: four DR1+ donors, 12 d after HA306–318 stimulation
Protocol: (§2) Flu1 peptide–stimulated, precultured PBMCs (5 × 10^5) were transferred to a 96-well plate and washed with PBS. Cell pellets were resuspended in 25 nM […] dasatinib (Axon Medchem, Reston, VA) and incubated for 30 min at 37°C. For each multimer, 0.5 μg was added directly to the cell pellet before incubating for 20 min on ice in the dark. Where dual staining with both PE- and allophycocyanin-conjugated multimers was used, 0.5 μg each was mixed per sample prior to addition to the cell pellets. Cells were then washed twice with cold PBS, followed by Live/Dead aqua (Life Technologies) staining to exclude dead cells. Surface staining was subsequently performed in PBS, 2.5% FCS, and 5 mM EDTA (FACS buffer), with the following cell surface markers: CD3-PerCP-Cy5.5 (BD Biosciences), CD4–Brilliant Violet 421 (BioLegend), CD14-FITC (BioLegend), and CD19-FITC (BioLegend). Cells were incubated for 20 min at 4°C in the dark before resuspending in FACS buffer for acquisition on a FACSCanto II (BD Biosciences). Data were analyzed using FlowJo version 10 (Tree Star).

[7] = tested on: CD4+ T cell clone 2C5 spiked into PBMCs; test: Clone dilution assay; assay type: cell-based, human; settings: 0.125 μg multimer/1 × 10^6 PBMCs
Protocol: PBMCs (2 × 10^6) were spiked at 1, 0.5, 0.25, 0.125, 0.0625, or 0.0312% with the CD4^+ T cell clone 2C5. Cell mixtures were then stained with 0.125 μg multimer/1 × 10^6 PBMCs and labeled with Abs as described in the previous section. Samples were acquired directly on a FACSCanto II flow cytometer (BD Biosciences) and analyzed using FlowJo software version 10 (Tree Star).

[8] = tested on: CD4+ T cell clone DC-D8; test: Multimer staining of CD4+ T cell clone DC-D8; assay type: cell-based, human; settings: histograms, Fig. 6C
Protocol: as §1

[9] = tested on: CD4+multimer+ T cells in PBMCs after influenza vaccination; assay type: cell-based, human
[10] = tested on: CD4+ T cell clone 2C5; test: pMHC-II multimer staining of CD4+ T cell clone 2C5; assay type: cell-based, human; settings: DR1-Flu3 versus DR1-Flu1 multimer; 1 μg multimer, 1 × 10^5 cells, 20 min at 4°C
Protocol: as §1

[11] = tested on: HA1.7 TCR; test: Thermodynamic analysis (SPR, nonlinear van't Hoff) of HA1.7 TCR ligation; assay type: binding, human; settings: HA1.7-DR1-Flu3, 298 K; Biacore T100; 10 serial dilutions of TCR at 5, 10, 15, 20, 25, 30°C; triplicate
Protocol: Thermodynamic analysis of HA1.7 TCR ligation to DR1-Flu3 was performed using a Biacore T100 (GE Healthcare) equipped with a CM5 sensor chip. Activation and pMHC-II loading were assessed as previously described ([40]). A total of 500 response units of biotinylated pMHC-II were immobilized to streptavidin, which was chemically linked to the chip surface. Equilibrium binding analysis was performed with 10 serial dilutions of the TCR individually injected at temperatures of 5, 10, 15, 20, 25, and 30°C. Experiments were performed in triplicate using a blank flow cell, A2-[…] and DR1-CLIP as negative controls in separate experiments. The binding response was determined by subtraction of the response measured on a negative control flow cell from the response measured on flow cells containing DR1-Flu3. Results were analyzed using BIAevaluation 3.1, Microsoft Excel, and Origin 6.1. The KD values were calculated using a nonlinear curve fit [y = (P1x)/(P2 + x)].

[12] = biological target: 2C5 TCR; test: SPR equilibrium binding of 2C5 TCR to DR1-peptide; parameters: species or system human; settings: 25°C; for Kd: SPR equilibrium binding, Biacore 3000, CM5 chip, biotinylated pMHC-II immobilized on streptavidin, 2C5 TCR injected in eight serial dilutions, 45 μl/min
Protocol: Binding analysis was performed using a Biacore 3000 (GE Healthcare) equipped with a CM5 sensor chip, as reported previously ([43], [44]). Between 200 and 400 response units of biotinylated pMHC-II was immobilized on streptavidin, which was chemically linked to the chip surface. pMHC-II was injected at a slow-flow rate (10 μl/min) to ensure uniform distribution on the chip surface. The 2C5 TCR was purified and concentrated to ∼100 μM on the day of analysis to minimize TCR aggregation. For equilibrium analysis, eight serial dilutions were carefully prepared and injected over the relevant sensor chip at a flow rate of 45 μl/min at 25°C. Results were analyzed using BIAevaluation 3.1, Microsoft Excel, and Origin 6.1. The KD values were calculated using a nonlinear curve fit [y = P1x/(P2 + x)].

[13] = tested on: Flu1 peptide-stimulated DR1+ PBMCs of donor 4 (CD4+ T cells); test: Dual multimer staining following PBMC culture; assay type: cell-based, human; settings: dual stain 1 vs dual stain 2, donor 4
Protocol: as §2

[14] = tested on: HA1.7 TCR; settings: HA1.7-DR1-Flu1, 298 K, nonlinear regression of temperature vs free energy; previously published; cited from earlier work
Source text: FIGURE 1. The biophysical impact of altered C-terminal PFRs on TCR binding. SPR was used to determine equilibrium binding of the 2C5 TCR to DR1 complexed with either (A) native Flu1 (HA306−318, […]) or (B) altered Flu3 ([…]). (C) Previously published thermodynamic analysis of the HA1.7-DR1-Flu1 interaction ([40]). (D) HA1.7-DR1-Flu3 thermodynamic properties showing enthalpy (ΔH^o) and entropy (TΔS^o) at 298 K calculated by nonlinear regression of temperature (K) plotted against free energy (ΔG^o). TEXT PRINTED IN THE PICTURE: (A) 2C5-DR1-Flu1: KD = 30 ± 2 μM | (B) 2C5-DR1-F ...

## PKYVKQNTLKLAR [Flu3, C-terminally modified variants of HA306−318 with Arg at P11 (Flu3, […])]
[1]
  binding affinity increase: ~2 fold

## PKYVKQNTLKLAT [Flu1, influenza HA306–318 (Flu1), …]
[2]
  T cell responses in IFN-γ ELISPOT assays: robust T cell responses

## PKYVKQNTLKLAR [DR1-Flu3, HLA-DR1 heterodimer complexed with altered Flu3 ([…]); monomer in SPR, fluorochrome-tagged multimer in staining]
[3]
  MFI, fold higher than DR1-Flu1: 3 fold
  proportion of CD4+ T cells stained compared with DR1-Flu1 multimer: stained a higher proportion of CD4^+ T cells
[4]; PBMCs spiked at 1% with 2C5, 20 min at 4°C
  identification of CD4+multimer+ population at 1 μg/1 × 10^6 PBMCs: enabled clear visualization and accurate enumeration
[4]; PBMCs spiked at 1% with 2C5, 20 min at 4°C, distinct staining at concentrations down to this value
  lowest multimer concentration with distinct staining: 0.0312 μg/1 × 10^6 PBMCs
[4]; greatest shift in MFI while reducing potential nonspecific staining
  optimal quantity of multimer per stain: 0.125 μg/1 × 10^6 PBMCs
[5]
  staining of clone DC-C10: stained
[6]
  CD4+multimer+ population size and MFI compared with DR1-Flu1 multimer: detected larger populations of CD4^+multimer^+ cells, with generally greater MFIs
[7]; 2C5 spiked at 1 to 0.0312%, compared with DR1-Flu1
  ability to detect cognate CD4+ T cells across range of spiked frequencies: far superior ability to detect cognate CD4^+ T cells across the entire range of spiked frequencies
[8]
  staining of clone DC-D8: stained
[9]
  population of CD4+ T cells identified compared with DR1-Flu1 multimer: identified a larger population of CD4^+ T cells
[10]
  mean fluorescence intensity (MFI) of staining of 2C5 clone: A large increase in mean fluorescence intensity (MFI)
[11]
  TΔS°: 20 kcal/mol
  ΔH°: 16.4 kcal/mol
[12]
  Kd: 16 ± 2 µM
[12]; SPR, vs DR1-Flu1
  affinity of 2C5 TCR, fold stronger compared with wild-type C-terminal PFR sequence: ~2 fold
[13]
  detection of additional, presumably lower avidity, cells compared with DR1-Flu1: able to detect additional, presumably lower avidity, cells compared with DR1-Flu1

## PKYVKQNTLKLAT [DR1-Flu1, HLA-DR1 heterodimer complexed with native Flu1 (HA306−318, …); monomer in SPR, fluorochrome-tagged multimer in staining]
[4]; below 1 μg/1 × 10^6 PBMCs, PBMCs spiked at 1% with 2C5
  identification of cognate CD4+ T cells at lower reagent concentrations: failed to identify cognate CD4^+ T cells
[5]
  staining of clone DC-C10: stained
[7]; poor separation
  spiked frequency at which precise quantification was almost impossible: ≤ 0.25%
[8]
  staining of clone DC-D8: stained
[14]
  TΔS°: 23.8 kcal/mol
  ΔH°: 18 kcal/mol
[12]
  Kd: 30 ± 2 µM
